Measurements from patent publication US11413360B2, “Dual mode radiotracer and—therapeutics” (priority 2017, dated 2022).
Read-outs that look alike come from different tables or passages of the source.

Key:
LNCaP cells = test: Internalization of radiolabelled ligands into LNCaP cells; format: cell-based
Protocol: Subsequent to the removal of the culture medium, the cells were washed once with 500 μL DMEM-F12 (5% BSA) and left to equilibrate for at least 15 min at 37° C. in 200 μL DMEM-F12 (5% BSA). Each well was treated with either 25 μL of either DMEM-F12 (5% BSA) or a 100 μM PMPA solution for blockade. […] The experiment was terminated by placing the 24-well plate on ice for 3 min and consecutive removal of the medium. Each well was rinsed with 250 μL HBSS and the fractions from these first two steps combined, representing the amount of free radioligand. Removal of surface bound activity was accomplished by incubation of the cells with 250 μL of ice-cold PMPA (10 μM in PBS) solution for 5 min and rinsed again with another 250 μL of ice-cold PBS. The internalized activity was determined by incubation of the cells in 250 μL 1 M NaOH and the combination with the fraction of a subsequent wash step with 250 μL 1.0 M NaOH. Each experiment (control and blockade) was performed in triplicate. Free, surface bound and internalized activity was quantified in a γ-counter. […] Data were corrected for non-specific internalization and normalized to the specific-internalization observed for the radioiodinated reference compound.

PSMA = molecular target: T1, PSMA (Homo sapiens, UniProt Q04609); test: Determination of PSMA affinity (IC50), competition with ([125I]I-BA)KuE on LNCaP cells; format: binding; conditions: ([125I]I-BA)KuE 0.2 nM, 1 h, 4° C., mean ± SD, read-out: IC50
T1 construct: endogenous in cells; host or cells: LNCaP cells
Protocol: After removal of the culture medium, the cells were treated once with 500 μL of HBSS (Hank's balanced salt solution, Biochrom, Berlin, Germany, with addition of 1% bovine serum albumin (BSA)) and left 15 min on ice for equilibration in 200 μL HBSS (1% BSA). […] Quantification of bound and free radioligand was accomplished in a γ-counter.

Human Serum Albumin = Human Serum Albumin (Homo sapiens, UniProt P02768); test: HSA binding on Chiralpak HSA column; format: in vitro ADME
Protocol: The mobile phase (A: NH4OAc, 50 mM in water, pH 7 and B: isopropanol) was freshly prepared for each experiment and only used for one day. The column was kept at room temperature and each run was stopped after detection of the signal to reduce the acquisition time. All substances were dissolved in a 0.5 mg/ml concentration in 50% 2-propanol and 50% 50 mM pH 6.9 ammonium acetate buffer. […] All nine reference substances (see Table 1) were injected consecutively to establish a non-linear regression with OriginPro 2016G; see FIG. 1.

[1] = system: prostate cancer tumor lesions; test: Human PET uptake in and detection of prostate cancer tumor lesions with 18F-labelled PSMA-SIFA3 (7); format: in vivo
Excerpt: Gluteal muscle served as background.

[2] = system: recurrent prostate cancer; test: PET/MR with 68Ga-labelled PSMA-SIFA3 (7) in one subject; format: in vivo, human; conditions: 144 MBq, PET/MR 66 min after injection, one subject with biochemical recurrence
Protocol: As a proof on concept investigation of a ^68Ga-labelled SiFA substituted chelator-based PET tracers one subject with biochemical recurrence after radical prostatectomy (PSA 0.44 ng/ml, pT2c, pNO, Gleason 7b) underwent PET/MR 66 min after injection of 144 MBq ^68Ga-labelled PSMA-SIFA3 (7).

[3] = in vivo
[4] = Octanol-water partition coefficient (log D) of radiolabelled ligands; format: physicochemical; conditions: n-octanol/PBS, n = 6
Protocol: Approximately 1 MBq of the labelled tracer was dissolved in 1 mL of a 1:1 mixture (by volumes) of phosphate buffered saline (PBS, pH 7.4) and n-octanol in an Eppendorf tube. After vigorous mixing of the suspension for 3 minutes at room temperature, the vial was centrifuged at 15000 g for 3 minutes (Biofuge 15, Heraus Sepatech, Osterode, Germany) and 100 μL aliquots of both layers were measured in a gamma counter. The experiment was repeated at least six times.

[5] = 18F-labelled, of 72 lesions analysed
[6] = 35 lesions with no correlate or small size on morphological imaging, 18F-labelled, human PET
[7] = bone metastases (n=21), 18F-labelled, human PET
[8] = local tumor (n=24), 18F-labelled, human PET
[9] = lymph node metastases (n=23), 18F-labelled, human PET
[10] = tumor lesions, 18F-labelled, human PET, n = 72
[11] = visceral metastases (n=4), 18F-labelled, human PET

T1 sequence (Q04609 whole entry): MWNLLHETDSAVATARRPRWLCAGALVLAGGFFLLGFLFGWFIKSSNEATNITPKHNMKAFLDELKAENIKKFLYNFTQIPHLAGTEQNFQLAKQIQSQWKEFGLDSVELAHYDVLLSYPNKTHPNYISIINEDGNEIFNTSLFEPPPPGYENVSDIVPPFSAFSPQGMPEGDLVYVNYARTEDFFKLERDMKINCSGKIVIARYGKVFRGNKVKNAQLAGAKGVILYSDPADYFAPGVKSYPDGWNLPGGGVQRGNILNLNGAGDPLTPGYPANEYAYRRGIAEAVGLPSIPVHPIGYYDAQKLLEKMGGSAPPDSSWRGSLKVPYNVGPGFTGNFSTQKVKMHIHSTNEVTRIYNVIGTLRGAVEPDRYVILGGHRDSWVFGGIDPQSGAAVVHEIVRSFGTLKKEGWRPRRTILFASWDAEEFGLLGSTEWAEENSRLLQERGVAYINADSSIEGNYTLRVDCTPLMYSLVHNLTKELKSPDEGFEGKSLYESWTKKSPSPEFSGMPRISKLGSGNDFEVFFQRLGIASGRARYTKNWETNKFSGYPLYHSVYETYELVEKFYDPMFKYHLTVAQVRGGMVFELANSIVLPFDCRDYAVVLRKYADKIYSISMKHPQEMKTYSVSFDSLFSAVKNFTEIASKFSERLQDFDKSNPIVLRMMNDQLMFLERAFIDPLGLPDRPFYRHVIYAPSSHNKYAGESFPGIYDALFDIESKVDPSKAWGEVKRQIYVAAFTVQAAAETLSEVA
Sequence of Human Serum Albumin (P02768 25-609): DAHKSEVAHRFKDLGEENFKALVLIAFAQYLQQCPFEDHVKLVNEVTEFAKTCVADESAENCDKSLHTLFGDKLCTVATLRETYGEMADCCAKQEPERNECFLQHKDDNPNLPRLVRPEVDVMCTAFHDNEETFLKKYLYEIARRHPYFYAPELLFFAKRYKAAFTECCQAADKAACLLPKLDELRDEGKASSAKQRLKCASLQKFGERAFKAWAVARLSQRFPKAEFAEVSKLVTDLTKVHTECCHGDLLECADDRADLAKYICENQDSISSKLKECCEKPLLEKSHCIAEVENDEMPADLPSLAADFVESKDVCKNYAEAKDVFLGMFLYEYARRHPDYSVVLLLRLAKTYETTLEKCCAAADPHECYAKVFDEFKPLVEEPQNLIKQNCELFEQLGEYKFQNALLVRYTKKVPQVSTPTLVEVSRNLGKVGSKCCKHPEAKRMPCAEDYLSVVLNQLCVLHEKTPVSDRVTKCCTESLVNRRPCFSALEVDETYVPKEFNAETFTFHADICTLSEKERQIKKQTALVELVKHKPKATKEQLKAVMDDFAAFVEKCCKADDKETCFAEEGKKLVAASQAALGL

CC(C)(C)[Si](F)(c1ccc(C(=O)NC[C@@H](NC(=O)CCC(C(=O)O)N2CCN(CC(=O)O)CCN(CC(=O)O)CCN(CC(=O)O)CC2)C(=O)N[C@H](CCCCNC(=O)CCC(=O)NCCC[C@@H](NC(=O)CC[C@H](NC(=O)N[C@@H](CCC(=O)O)C(=O)O)C(=O)O)C(=O)O)C(=O)O)cc1)C(C)(C)C (some centres unmarked) [ligand 7, PSMA-SIFA3]
Internalization (LNCaP cells; 18F-L, 0.5 nM, 1 hour, 37° C., % of reference ligand ([125I]I-BA)KuE, mean ± SD): 164.8 ± 4.5% | Internalization (LNCaP cells; 177Lu-natF-L, 0.5 nM, 1 hour, 37° C., % of reference ligand ([125I]I-BA)KuE, mean ± SD): 185.8 ± 4.5% | Internalization (LNCaP cells; 1 h, 0.0005 µM): 126.0 ± 13.1% | IC50 (PSMA; natF-L (uncomplexed)): 3.5 ± 0.2 nM | IC50 (PSMA; natGa-natF-L): 3 ± 0.7 nM | IC50 (PSMA; natLu-natF-L): 3.9 ± 0.5 nM | HSA binding (Human Serum Albumin; natGa-natF-L): 95.7% | HSA binding (Human Serum Albumin; natLu-natF-L): 97.7% | SUVmax max [1]: 25 | SUVmean max [1]: 28.3 | ratio SUVmax to background max [1]: 43.8 | ratio SUVmean to background max [1]: 56.6 | patients in whom lesions indicative for prostate cancer were detected ([1]; 18F-labelled, 53 subjects imaged (primary staging n=6, recurrent disease n=47)): 39 patients | lesions with no correlate on morphological imaging [1, 5]: 21 lesions | lesions with size of equal or less than 5 mm on morphological imaging [1, 5]: 14 lesions | uptake in prostate cancer lesions (individual patient images) ([1]; 18F-labelled, single patients, FIG. 26 and FIG. 27): high uptake | SUVmax mean [1, 6]: 16.7 | SUVmax min [1, 6]: 9.2 | SUVmean mean [1, 6]: 13.3 | SUVmean min [1, 6]: 6.4 | ratio SUVmax to background mean [1, 6]: 18.3 | ratio SUVmax to background min [1, 6]: 5.8 | ratio SUVmean to background mean [1, 6]: 22.9 | ratio SUVmean to background min [1, 6]: 7.1 | SUVmax max [1, 7]: 95.4 | SUVmax mean [1, 7]: 31.2 | SUVmax min [1, 7]: 7.9 | SUVmean max [1, 7]: 71.7 | SUVmean mean [1, 7]: 22.2 | SUVmean min [1, 7]: 5.3 | ratio SUVmax to background max [1, 7]: 73.4 | ratio SUVmax to background mean [1, 7]: 32.8 | ratio SUVmax to background min [1, 7]: 7.9 | ratio SUVmean to background max [1, 7]: 80 | ratio SUVmean to background mean [1, 7]: 36.6 | ratio SUVmean to background min [1, 7]: 8.8 | SUVmax max [1, 8]: 75.1 | SUVmax mean [1, 8]: 26.9 | SUVmax min [1, 8]: 4 | SUVmean max [1, 8]: 19.3 | SUVmean mean [1, 8]: 19.3 | SUVmean min [1, 8]: 2.7 | ratio SUVmax to background max [1, 8]: 83.4 | ratio SUVmax to background mean [1, 8]: 29.6 | ratio SUVmax to background min [1, 8]: 5 | ratio SUVmean to background max [1, 8]: 83.2 | ratio SUVmean to background mean [1, 8]: 32.4 | ratio SUVmean to background min [1, 8]: 5.4 | SUVmax max [1, 9]: 67.5 | SUVmax mean [1, 9]: 22.2 | SUVmax min [1, 9]: 8.1 | SUVmean max [1, 9]: 44.6 | SUVmean mean [1, 9]: 16.6 | SUVmean min [1, 9]: 6.4 | ratio SUVmax to background max [1, 9]: 63.6 | ratio SUVmax to background mean [1, 9]: 23.7 | ratio SUVmax to background min [1, 9]: 5.8 | ratio SUVmean to background max [1, 9]: 70.7 | ratio SUVmean to background mean [1, 9]: 27.3 | ratio SUVmean to background min [1, 9]: 7.1 | SUVmax max [1, 10]: 95.4 | SUVmax mean [1, 10]: 26.6 | SUVmax min [1, 10]: 4.0 | SUVmean max [1, 10]: 71.7 | SUVmean mean [1, 10]: 19.2 | SUVmean min [1, 10]: 2.7 | ratio SUVmax to background max [1, 10]: 83.4 | ratio SUVmax to background mean [1, 10]: 28.6 | ratio SUVmax to background min [1, 10]: 5.0 | ratio SUVmean to background max [1, 10]: 83.2 | ratio SUVmean to background mean [1, 10]: 31.9 | ratio SUVmean to background min [1, 10]: 5.4 | SUVmax max [1, 11]: 32.5 | SUVmax mean [1, 11]: 26.1 | SUVmax min [1, 11]: 20.4 | SUVmean max [1, 11]: 19.1 | SUVmean mean [1, 11]: 17.4 | SUVmean min [1, 11]: 15.5 | ratio SUVmax to background max [1, 11]: 40.6 | ratio SUVmax to background mean [1, 11]: 28.9 | ratio SUVmax to background min [1, 11]: 18.5 | ratio SUVmean to background max [1, 11]: 38.2 | ratio SUVmean to background mean [1, 11]: 30.2 | ratio SUVmean to background min [1, 11]: 22.1 | uptake in lesion (proof of concept) [2]: Uptake typical for recurrent prostate cancer is demonstrated in a 2 mm lymph node | adverse events / clinically detectable pharmacological effects [3]: No adverse events or clinically detectable pharmacological effects were noted | logD ([4]; pH 7.4, 18F-L): -1.98 ± 0.04 | logD ([4]; pH 7.4, 68Ga-natF-L): -3.18 ± 0.05 | logD ([4]; pH 7.4, 177Lu-natF-L): -4.2 ± 0.09
